Reference: publication PMC10714399, “Open Source Antibiotics: Simple Diarylimidazoles Are Potent against Methicillin-Resistant Staphylococcus aureus” (ACS Infectious Diseases, 2023)
Converted amounts (≈) assume the structure as drawn. Like-named read-outs stand apart in the source and are kept apart here. One block for each compound: values may come before it.

What was measured:
[1] = system: S. aureus ATCC 25923 (methicillin-susceptible); test: In vitro antibacterial activity, MIC (UCL), MSSA; type: cell-based, Staphylococcus aureus; conditions: for MIC: Staphylococcus aureus
Method: (§1) Staphylococcus aureus NCTC 13373 (mecA-positive; methicillin-resistant, NCTC 13373) was supplied by the National Collection of Type Cultures (NCTC), Public Health England, United Kingdom. Other organisms, S. aureus ATCC 25923 (methicillin-susceptible) and Enterococcus faecalis ATCC 51299 (vanA-positive; vancomycin-resistant), were obtained from the American Type Culture Collection (ATCC) via LGC Standards, UK. A suspension of each organism was prepared from an overnight plate culture (tryptone soya agar) in phosphate-buffered saline (PBS) and adjusted to an absorbance reading at 600 nm of 0.1, which is approximately equivalent to 1 × 10^8 colony-forming units (CFU) per mL. The cultures were further diluted 1:100 in isosensitest broth (Oxoid, United Kingdom) before 100 μL was used to inoculate each well of a 96-well plate that contained diluted samples of the OSA series. Compounds were evaluated over a 2-fold dilution range from 32 to 0.03 μg/mL. Stocks of the samples were prepared in 100% DMSO at […] before being diluted in isosenstitest broth. The highest concentration of DMSO present was 2%, which has been previously shown not to inhibit the growth of the microorganisms (data not shown). […] Vancomycin was used as a quality control compound.

[2] = system: Staphylococcus aureus NCTC 13373 (mecA-positive; methicillin-resistant); test: In vitro antibacterial activity, MIC (UCL School of Pharmacy assay), MRSA; type: cell-based; conditions: for MIC: Staphylococcus aureus
Method: as §1

[3] = UCL assay, read-out: MSSA MIC (ug/mL) (UCL)
[4] = UCL assay, read-out: MRSA MIC (ug/mL) (UCL)

- MIC ([2]; read-out: MRSA MIC): 32 µg/mL (≈ 96.3 µM)
Compound: Cc1nc2cc(-c3c(-c4ccccn4)nc4n3CCC4)ccc2s1 [compound 836]
- activity against MRSA, in words [2]: ineffective

- MIC ([2]; UCL, read-out: MRSA MIC (UCL)): > 32 µg/mL
Compound: c1ccc(-c2nc3n(c2-c2ccc4cccnc4c2)CCC3)nc1 [OSA_000833]

- MIC ([2]; read-out: MRSA MIC): 32 µg/mL (≈ 105 µM)
Compound: c1ccc(-c2nc3n(c2-c2ccc4c(c2)CCO4)CCC3)nc1 [compound 827]
- activity against MRSA, in words [2]: ineffective

- MIC ([2]; UCL, read-out: MRSA MIC (UCL)): 32 µg/mL (≈ 101 µM)
Compound: c1ccc(-c2nc3n(c2-c2ccc4scnc4c2)CCC3)nc1 [OSA_000835]

- MIC ([2]; UCL, read-out: MRSA MIC (UCL)): > 32 µg/mL
Compound: c1ccc(-c2nc3n(c2-c2ccc4sccc4c2)CCC3)cc1 [OSA_000834]

- MIC ([2]; UCL, read-out: MRSA MIC (UCL)): 8 µg/mL (≈ 25.2 µM)
Compound: c1ccc(-c2nc3n(c2-c2csc4ccccc24)CCC3)nc1 [OSA_000832]

- MIC ([2]; read-out: MRSA MIC): 8 µg/mL (≈ 25.2 µM)
Compound: c1ccc(-c2nc3n(c2-c2csc4ccccc24)CCC3)nc1 [compound 832]

- MRSA MIC [2]: > 32 µg/mL
Compound: c1cncc(-c2nc3n(c2-c2ccc4c(c2)OCO4)CCC3)c1 [compound 816]

- MIC ([2]; read-out: MRSA MIC): 16 µg/mL (≈ 50.1 µM)
Compound: c1ccc(-c2nc3n(c2-c2ccc4c(c2)OCCO4)CCC3)nc1 [compound 819]

- MIC ([2]; read-out: MRSA MIC): 32 µg/mL (≈ 101 µM)
Compound: c1ccc(-c2nc3n(c2-c2ccc4scnc4c2)CCC3)nc1 [compound 835]
- activity against MRSA, in words [2]: ineffective

- MIC ([2]; read-out: MRSA MIC): > 32 µg/mL
Compound: c1ccc(-c2nc3n(c2-c2ccc4cccnc4c2)CCC3)nc1 [compound 833]
- activity against MRSA, in words [2]: ineffective

- MIC ([2]; read-out: MRSA MIC): 16 µg/mL (≈ 54.9 µM)
Compound: COc1cccc(-c2c(-c3ccccn3)nc3n2CCC3)c1 [compound 825]

- MIC ([2]; read-out: MRSA MIC): 32 µg/mL (≈ 101 µM)
Compound: c1ccc(-c2nc3ccccn3c2-c2ccc3c(c2)OCO3)nc1 [compound 814]

- MRSA MIC [2]: 32 µg/mL
Compound: c1ccc(-c2nc3n(c2-c2ccc4c(c2)OCO4)CCS3)nc1 [compound 813]

- MRSA MIC [2]: > 32 µg/mL
Compound: c1cc(-c2nc3n(c2-c2ccc4c(c2)OCO4)CCC3)ccn1 [compound 817]

- MIC ([2]; read-out: MRSA MIC): 8 µg/mL (≈ 21.8 µM)
Compound: c1ccc(-c2nc3n(c2-c2ccc4sc5ccccc5c4c2)CCC3)nc1 [compound 831]

- MIC ([2]; read-out: MRSA MIC): 4 µg/mL (≈ 13 µM)
Compound: CSc1cccc(-c2c(-c3ccccn3)nc3n2CCC3)c1 [compound 826]

- MIC ([2]; read-out: MRSA MIC): 32 µg/mL (≈ 105 µM)
Compound: c1ccc(-c2nc3n(c2-c2ccc4c(c2)OCC4)CCC3)nc1 [compound 828]
- activity against MRSA, in words [2]: ineffective

Second part, the compound before the results:

Compound: N#Cc1ccc(-c2c(-c3ncccn3)nc3ccccn23)cc1 [compound 1107]
- MSSA MIC [1]: > 32 µg/mL
- MRSA MIC [2]: > 32 µg/mL

Compound: CC(C)CN(c1ccc(F)cc1)c1c(-c2ccccn2)nc2cc(F)ccn12 [compound 1023]
- MSSA MIC [1]: 4 µg/mL
- MRSA MIC [2]: 8 µg/mL

Compound: COc1ccnc(-c2nc3ccccn3c2N(C)c2ccc(F)cc2)c1 [compound 1007]
- MSSA MIC [1]: 8 µg/mL
- MRSA MIC [2]: 8 µg/mL

Compound: CN1CCN(c2ccc(-c3c(-c4ccccn4)nc4ccccn34)cc2)CC1 [compound 1012]
- MIC ([1]; read-out: MSSA MIC): > 32 µg/mL
- MIC ([2]; read-out: MRSA MIC): > 32 µg/mL

Compound: CC(C)CN(c1ccc(F)cc1)c1c(-c2nccs2)nc2ccccn12 [OSA_001010]
- MIC ([1]; read-out: MSSA MIC (UCL)): > 32 µg/mL
- MIC ([2]; UCL, read-out: MRSA MIC (UCL)): > 32 µg/mL

Compound: Cc1ccc(-c2c(-c3ccccn3)nc3cc(C(N)=O)ccn23)cc1 [compound 1015]
- MSSA MIC [1]: > 32 µg/mL
- MRSA MIC [2]: > 32 µg/mL

Compound: N#Cc1ccc(-c2nc(-c3ccccn3)c[nH]2)cc1 [compound 1102]
- MSSA MIC [1]: > 32 µg/mL
- MRSA MIC [2]: > 32 µg/mL

Compound: CC(C)CN(c1ccc(F)cc1)c1c(-c2ccccn2)nc2ccc(F)cn12 [compound 1024]
- MSSA MIC [1]: 8 µg/mL
- MRSA MIC [2]: 8 µg/mL

Compound: c1ccc(-c2nc3ncccn3c2-c2ccc3c(c2)OCO3)nc1 [compound 815]
- MRSA MIC [2]: > 32 µg/mL

Compound: CCN(CC)c1ccc(-c2c(-c3ccccn3)nc3ccccn23)cc1 [compound 1011]
- MIC ([1]; read-out: MSSA MIC): 4 µg/mL (≈ 11.7 µM)
- MIC ([2]; read-out: MRSA MIC): 4 µg/mL (≈ 11.7 µM)

Compound: Fc1ccc(Nc2c(-c3ccc[nH]3)nc3ccccn23)cc1 [compound 1009]
- MIC ([1]; read-out: MSSA MIC): > 32 µg/mL
- MIC ([2]; read-out: MRSA MIC): > 32 µg/mL

Compound: CC(C)CN(c1ccc(F)cc1)c1c(-c2ccccn2)nc2ncccn12 [OSA_001038]
- MIC [1, 3]: 8 µg/mL (≈ 22.1 µM)

Compound: Cc1ccc(-c2c(-c3ccccn3)nc3cc(C#N)ccn23)cc1 [OSA_001013]
- MIC ([1]; read-out: MSSA MIC (UCL)): > 32 µg/mL
- MIC ([2]; UCL, read-out: MRSA MIC (UCL)): > 32 µg/mL

Compound: N#Cc1ccc(-c2c(-c3ncccn3)nc3ccccn23)cc1 [OSA_001107]
- MIC [1, 3]: > 32 µg/mL
- MIC [2, 4]: > 32 µg/mL

Compound: COc1ccc(-c2nc3ccccn3c2N(CC(C)C)c2ccc(F)cc2)nc1 [OSA_001034]
- MIC [2, 4]: 8 µg/mL (≈ 20.5 µM)

Compound: N#Cc1ccc(C(=O)Nc2c(-c3ccccn3)nc3ccccn23)cc1 [compound 1016]
- MIC ([1]; read-out: MSSA MIC): > 32 µg/mL
- MIC ([2]; read-out: MRSA MIC): > 32 µg/mL
